Test results: ChEMBL document CHEMBL1157846, “Synthesis and theoretical studies on energetics of novel N- and O- perfluoroalkyl triazole tagged thienopyrimidines--their potential as adenosine receptor ligands” (Eur J Med Chem, 2010)

Assays:
Adenosine receptor A2a = Adenosine receptor A2a (Rattus norvegicus, UniProt P30543)
Description: Displacement of [3H]MSX-2 from adenosine A2A receptor in rat brain striatal membrane after 30 mins by scintillation counting

Adenosine receptor A1 = target: T1, Adenosine receptor A1 (Rattus norvegicus, UniProt P25099)
T1 sequence (P25099 whole entry): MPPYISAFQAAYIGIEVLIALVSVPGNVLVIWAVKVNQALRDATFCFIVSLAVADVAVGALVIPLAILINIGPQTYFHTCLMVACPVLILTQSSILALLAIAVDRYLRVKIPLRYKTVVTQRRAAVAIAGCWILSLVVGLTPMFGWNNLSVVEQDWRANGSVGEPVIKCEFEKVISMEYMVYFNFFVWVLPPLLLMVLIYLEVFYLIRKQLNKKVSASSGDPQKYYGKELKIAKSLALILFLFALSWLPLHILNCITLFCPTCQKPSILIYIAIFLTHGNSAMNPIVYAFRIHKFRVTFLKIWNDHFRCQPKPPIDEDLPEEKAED
Description: Displacement of [3H]CCPA from adenosine A1 receptor in rat brain cortical membrane after 90 mins by scintillation counting

Chain of Adenosine receptor A2a (P30543 whole entry): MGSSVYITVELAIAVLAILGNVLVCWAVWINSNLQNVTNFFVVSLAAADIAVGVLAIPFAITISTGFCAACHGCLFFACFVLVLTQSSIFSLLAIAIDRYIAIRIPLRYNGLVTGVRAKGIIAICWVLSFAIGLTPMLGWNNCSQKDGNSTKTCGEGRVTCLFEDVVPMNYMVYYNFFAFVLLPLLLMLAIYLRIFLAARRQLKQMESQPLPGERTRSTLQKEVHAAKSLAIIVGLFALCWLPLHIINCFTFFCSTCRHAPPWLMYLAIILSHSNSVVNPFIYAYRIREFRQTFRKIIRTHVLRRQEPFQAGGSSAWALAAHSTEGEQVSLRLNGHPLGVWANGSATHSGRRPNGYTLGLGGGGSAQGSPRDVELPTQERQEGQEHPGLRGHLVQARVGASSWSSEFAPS

Ki (Adenosine receptor A1) [nM]	SMILES	Ki (Adenosine receptor A2a) [nM]
–	C#CCn1c(C)nc2sc3c(c2c1=O)CCCC3	7
–	C#CCOc1nc(-c2ccccc2)nc2sc3c(c12)CCCC3	3
5	C#CCn1c(-c2ccccc2)nc2sc3c(c2c1=O)CCC3	9700
4	C#CCn1c(Cc2ccc(F)cc2)nc2sc(C)c(C)c2c1=O	7620
–	C#CCn1c(-c2ccccc2)nc2sc(C)c(C)c2c1=O	29
6	C#CCn1c(C)nc2sc(C)c(C)c2c1=O	3790

SMILES	Ki (Adenosine receptor A1) [nM]	Ki (Adenosine receptor A2a) [nM]
C#CCn1c(Cc2ccc(F)cc2)nc2sc3c(c2c1=O)CCCC3	21	14
C#CCn1c(C)nc2sc3c(c2c1=O)CCC3	6	18
